Earlier results, collected in patent publication EP3263095A1, “A PHARMACEUTICAL FORMULATION OF OLAPARIB” (Zentiva K.S., priority 2016, dated 2018).

Conditions: EMA/CHMP/789139/2014

O=C(c1cc(Cc2n[nH]c(=O)c3ccccc23)ccc1F)N1CCN(C(=O)C2CC2)CC1 [olaparib, 4-[(3-[(4-cyclopropylcarbonyl)piperazin-4-yl]carbonyl)-4-fluorophenyl]methyl(2H)-phtalazin-1-one]
Group of the Biopharmaceutical Classification System (low solubility and bioavailability): Group 4
